Assay results taken from patent publication US5567692A, “9-[(substituted glycyl) amido)]-6-demethyl-6-deoxytetracyclines” (priority 1995, dated 1996).
Where a name gives a salt, the structure may show the parent alone.

Columns and labels:
Format in all cases: cell-based
E. coli PRP1 Tet A = test: microbe, parasite or virus in culture; details: dihydrochloride
[1] = system: E. coli MC 4100 TNIOC Tet B; test: microbe, parasite or virus in culture; details: E. coli MC 4100 TNIOC Tet B
E. coli BAJ9003 IMP MUT = test: microbe, parasite or virus in culture; details: E. coli BAJ9003 IMP MUT
S. marcescens FPOR 8733 = test: MIC, agar dilution; details: dihydrochloride
S. aureus NEMC 8769 = test: MIC, agar dilution
[2] = system: S. aureus UBMS 88-7 Tet K; test: microbe, parasite or virus in culture; details: dihydrochloride
S. aureus UBMS 90-3 = test: MIC, agar dilution; details: Staphylococcus aureus, UBMS903, 18 h
[3] = system: S. aureus UBMS 90-2 Tet M; test: microbe, parasite or virus in culture; details: S. aureus UBMS 90-2 Tet M; dihydrochloride
S. aureus SMITH (MP) = test: MIC, agar dilution; details: Staphylococcus aureus, 18 h; S. aureus SMITH (MP); read-out: MIC
Enterococcus 12201 = test: MIC, agar dilution; details: Enterococcus 12201
E. faecalis ATCC 29212 = test: MIC, agar dilution; details: E. faecalis ATCC 29212
Enterococcus faecium = test: MIC range, recent clinical and veterinary isolates; details: 18 h, read-out: MIC Range
Streptococcus pyogenes = test: MIC range, recent clinical and veterinary isolates; details: 18 h, read-out: MIC Range
[4] = system: Escherichia coli (Veterinary); test: MIC range, recent clinical and veterinary isolates; details: 18 h, [15] isolates
Shigella spp. = test: MIC range, recent clinical and veterinary isolates; details: 18 h, [14] isolates
Klebsiella pneumoniae = test: MIC range, recent clinical and veterinary isolates; details: 18 h, [10] isolates
Citrobacter freundii = test: MIC range, recent clinical and veterinary isolates; details: 18 h, [10] isolates, read-out: MIC Range
[5] = system: Salmonella choleraesuis (Veterinary); test: MIC range, recent clinical and veterinary isolates; details: Salmonella enterica, 18 h, [15] isolates
Serratia marcescens = test: MIC range, recent clinical and veterinary isolates; details: 18 h, [10] isolates, read-out: MIC Range
Enterobacter cloacae = test: MIC range, recent clinical and veterinary isolates; details: 18 h, [10] isolates, read-out: MIC Range
Providencia spp. = test: MIC range, recent clinical and veterinary isolates; details: 18 h, read-out: MIC Range
Proteus mirabilis = test: MIC range, recent clinical and veterinary isolates; details: 18 h, read-out: MIC Range
Proteus vulgaris = test: MIC range, recent clinical and veterinary isolates; details: 18 h, [18] isolates, read-out: MIC Range
Pseudomonas aeruginosa = test: MIC range, recent clinical and veterinary isolates; details: 18 h, [10] isolates, read-out: MIC Range
Bacteroides fragilis = test: MIC range, recent clinical and veterinary isolates; details: 18 h, [11] isolates
Clostridium spp. = test: MIC range, recent clinical and veterinary isolates; details: 18 h, [9] isolates
Anaerobic Gram(+)Cocci = test: MIC range, recent clinical and veterinary isolates; details: 18 h; Anaerobic Gram(+)Cocci, [15] isolates; read-out: MIC Range
[6] = system: tetracycline sensitive and resistant Gram-positive and Gram-negative bacteria; test: In vitro antibacterial evaluation, summary in words; details: summary of Tables I, II and V, dihydrochloride

CN(C)CC(=O)Nc1ccc2c(c1O)C(=O)C1=C(O)[C@]3(O)C(=O)C(C(N)=O)=C(O)[C@@H](N(C)C)C3CC1C2 (stereo partly drawn) [CC, [4S-(4alpha,12aalpha)]-4-(Dimethylamino)-9-[[(dimethylamino)acetyl]amino]-1,4,4a,5,5a,6,11,12a-octahydro-3,10,12,12a-tetrahydroxy-1,11-dioxo-2-naphthacenecarboxamide dihydrochloride]
MIC (E. coli PRP1 Tet A): 0.5 µg/mL | MIC [1]: 0.25 µg/mL | MIC (E. coli BAJ9003 IMP MUT): no growth | MIC (S. marcescens FPOR 8733): 2 µg/mL | MIC (S. aureus NEMC 8769): < 0.015 µg/mL | MIC [2]: 0.5 µg/mL | MIC (S. aureus UBMS 90-3): 0.03 µg/mL | MIC [3]: 0.06 µg/mL | MIC (S. aureus SMITH (MP)): 0.03 µg/mL | MIC (Enterococcus 12201): 0.03 µg/mL | MIC (E. faecalis ATCC 29212): 0.03 µg/mL | MIC (Enterococcus faecium): 0.06 to 0.5 µg/mL | MIC (Streptococcus pyogenes): 0.06 to 0.12 µg/mL | MIC [4]: 0.25 to 4 µg/mL | MIC (Shigella spp.): 0.12 to 0.5 µg/mL | MIC (Klebsiella pneumoniae): 0.25 to 4 µg/mL | MIC (Citrobacter freundii): 0.5 to 8 µg/mL | MIC [5]: 0.5 to 8 µg/mL | MIC (Serratia marcescens): 2 to 8 µg/mL | MIC (Enterobacter cloacae): 0.5 to 1 µg/mL | MIC (Providencia spp.): 1 to 8 µg/mL | MIC (Proteus mirabilis): 0.12 to 2 µg/mL | MIC (Proteus vulgaris): 0.06 to 1 µg/mL | MIC (Pseudomonas aeruginosa): 2 to 16 µg/mL | MIC (Bacteroides fragilis): 0.25 to 1 µg/mL | MIC (Clostridium spp.): 0.03 to 0.12 µg/mL | MIC (Anaerobic Gram(+)Cocci): 0.015 to 0.12 µg/mL | in vitro antibacterial activity (in words) [6]: excellent in vitro activity | in vitro antibacterial activity (in words) ([6]; listed as 9-[(N,N-dimethylglycyl)amido)]-6-demethyl-6-deoxytetracycline): potent in vitro antibacterial activity
